Measurements reported in publication PMC7841422, “Predicting Volume of Distribution in Humans: Performance of In Silico Methods for a Large Set of Structurally Diverse Clinical Compounds” (Drug Metabolism and Disposition, 2021).

Assay: Blood-to-plasma partition ratio in human blood
Format: in vitro ADME
Details: human whole blood (K2EDTA as anticoagulant), control compounds, 37°C, 60 minutes incubation, LC/MS/MS, read-out: Blood-to-plasma partition ratio (BPR)
Method: In vitro measurement of blood-to-plasma partition was conducted in human blood (K2EDTA as anticoagulant) obtained from a commercial source (BioReclamation IVT, Liverpool, NY). Hematocrit (the ratio of volume of red blood cells to total blood) was measured by centrifugation of the whole blood at 3000 rpm for 10 minutes using microhematocrit capillary tubes. Control plasma was prepared from a portion of the whole blood by centrifugation at 3000g for 10 minutes. Both whole blood and control plasma samples were warmed at 37°C in a water bath for 30 minutes. Subsequently, the test compounds (1 µM in the final concentration) and controls [methazolamide (BPR ∼1) and metoprolol (BPR […])] were spiked into blood and incubated at 37°C (5% CO2) with shaking at 200 rpm for 60 minutes along with control samples. After incubation for 60 minutes, the incubated whole blood was removed from the water bath, and the plasma was separated by centrifugation at 1000g for 10 minutes. Aliquots of the control plasma were also removed. […] Test compounds and internal standard response (or peak area) ratio in whole blood and its resulting plasma were measured using liquid chromatography with tandem mass spectrometry (LC/MS/MS). Blood-to-plasma partition was calculated by ratio of mass spectrometric response of compounds in blood samples after 60 minutes of incubation to mass spectrometric response in plasma samples.

| blood plasma ratio at 60 min | SMILES |
| --- | --- |
| ~1 | CC(=O)/N=c1/sc(S(N)(=O)=O)nn1C [methazolamide] |
| ~40 | COCCc1ccc(OCC(O)CNC(C)C)cc1 (centres unmarked) [metoprolol] |
